Results published in the kinase profiling compilation of Christmann-Franck et al. (2016).

Key:
Assay in all cases: radiometric filter-binding kinase assay, Kinase HotSpot
PRKCB2 (human) = PRKCB2 (human) (UniProt P05771); conditions: compound 0.5 µM; ATP 10 µM
MAPK13 (human) = MAPK13 (human) (UniProt O15264); conditions: compound 0.5 µM; ATP 10 µM
PRKCZ (human) = PRKCZ (human) (UniProt Q05513); conditions: compound 0.5 µM; ATP 10 µM
PIM2 (human) = PIM2 (human) (UniProt Q9P1W9); conditions: compound 0.5 µM; ATP 10 µM
CLK3 (human) = CLK3 (human) (UniProt P49761); conditions: compound 0.5 µM; ATP 10 µM
WNK3 (human) = WNK3 (human) (UniProt Q9BYP7); conditions: compound 0.5 µM; ATP 10 µM
ERBB4 (human) = ERBB4 (human) (UniProt Q15303); conditions: compound 0.5 µM; ATP 10 µM
CDK4 CCND3 (human) = CDK4 CCND3 (human) (UniProt P30281+P11802); conditions: compound 0.5 µM
MAPKAPK3 (human) = MAPKAPK3 (human) (UniProt Q16644); conditions: compound 0.5 µM; ATP 10 µM
GRK7 (human) = GRK7 (human) (UniProt Q8WTQ7); conditions: compound 0.5 µM; ATP 10 µM
WNK2 (human) = WNK2 (human) (UniProt Q9Y3S1); conditions: compound 0.5 µM; ATP 10 µM
TSSK2 (human) = TSSK2 (human) (UniProt Q96PF2); conditions: compound 0.5 µM; ATP 10 µM
RPS6KA5 KD2 (human) = RPS6KA5 KD2 (human) (UniProt O75582); conditions: compound 0.5 µM; ATP 10 µM
RPS6KA5 KD2 (human), sequence (O75582 whole entry, looked up): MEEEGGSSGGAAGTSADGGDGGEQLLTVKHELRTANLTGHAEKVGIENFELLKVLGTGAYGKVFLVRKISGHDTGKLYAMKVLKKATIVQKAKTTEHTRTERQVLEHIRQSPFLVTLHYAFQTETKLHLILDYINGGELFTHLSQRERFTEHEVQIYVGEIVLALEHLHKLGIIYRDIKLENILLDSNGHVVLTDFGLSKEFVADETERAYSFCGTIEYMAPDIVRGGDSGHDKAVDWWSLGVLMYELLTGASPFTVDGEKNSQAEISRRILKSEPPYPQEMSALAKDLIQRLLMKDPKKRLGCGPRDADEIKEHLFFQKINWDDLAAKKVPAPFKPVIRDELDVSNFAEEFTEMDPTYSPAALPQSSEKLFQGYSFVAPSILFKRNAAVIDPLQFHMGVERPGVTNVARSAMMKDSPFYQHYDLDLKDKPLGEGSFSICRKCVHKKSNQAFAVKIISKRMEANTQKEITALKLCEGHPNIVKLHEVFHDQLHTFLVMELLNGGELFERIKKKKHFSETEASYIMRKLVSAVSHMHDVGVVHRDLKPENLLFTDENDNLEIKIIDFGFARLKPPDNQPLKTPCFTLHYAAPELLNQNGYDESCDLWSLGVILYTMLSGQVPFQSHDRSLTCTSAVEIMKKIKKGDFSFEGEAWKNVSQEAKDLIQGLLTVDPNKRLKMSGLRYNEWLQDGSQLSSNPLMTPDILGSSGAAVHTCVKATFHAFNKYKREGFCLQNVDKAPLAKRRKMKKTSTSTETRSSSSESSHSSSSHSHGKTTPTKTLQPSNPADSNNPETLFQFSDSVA

TYRO3 (human) = TYRO3 (human) (UniProt Q06418); conditions: compound 0.5 µM; ATP 10 µM
LIMK1 (human) = LIMK1 (human) (UniProt P53667); conditions: compound 0.5 µM; ATP 10 µM
DAPK2 (human) = DAPK2 (human) (UniProt Q9UIK4); conditions: compound 0.5 µM; ATP 10 µM
RPS6KA4 KD2 (human) = RPS6KA4 KD2 (human) (UniProt O75676); conditions: compound 0.5 µM; ATP 10 µM
CDK6 CCND1 (human) = CDK6 CCND1 (human) (UniProt Q00534+P24385); conditions: compound 0.5 µM
AKT2 (human) = AKT2 (human) (UniProt P31751); conditions: compound 0.5 µM; ATP 10 µM
AKT2 (human), sequence (P31751 whole entry, looked up): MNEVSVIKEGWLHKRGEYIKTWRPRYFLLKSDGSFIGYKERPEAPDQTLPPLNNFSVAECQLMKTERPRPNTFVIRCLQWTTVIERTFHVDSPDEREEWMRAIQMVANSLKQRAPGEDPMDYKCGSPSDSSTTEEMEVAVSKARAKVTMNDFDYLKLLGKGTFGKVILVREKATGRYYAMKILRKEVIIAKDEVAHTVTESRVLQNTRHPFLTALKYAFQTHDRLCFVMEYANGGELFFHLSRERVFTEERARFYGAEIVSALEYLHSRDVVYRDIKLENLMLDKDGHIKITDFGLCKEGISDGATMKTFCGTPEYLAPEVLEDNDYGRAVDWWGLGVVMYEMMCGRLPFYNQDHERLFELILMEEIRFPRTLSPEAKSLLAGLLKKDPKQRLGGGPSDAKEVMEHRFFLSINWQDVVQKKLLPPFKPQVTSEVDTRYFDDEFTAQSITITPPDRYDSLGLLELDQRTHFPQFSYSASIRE

PLK3 (human) = PLK3 (human) (UniProt Q9H4B4); conditions: compound 0.5 µM; ATP 10 µM
MST4 (human) = MST4 (human) (UniProt Q9P289); conditions: compound 0.5 µM; ATP 10 µM
MST4 (human), sequence (Q9P289 whole entry, looked up): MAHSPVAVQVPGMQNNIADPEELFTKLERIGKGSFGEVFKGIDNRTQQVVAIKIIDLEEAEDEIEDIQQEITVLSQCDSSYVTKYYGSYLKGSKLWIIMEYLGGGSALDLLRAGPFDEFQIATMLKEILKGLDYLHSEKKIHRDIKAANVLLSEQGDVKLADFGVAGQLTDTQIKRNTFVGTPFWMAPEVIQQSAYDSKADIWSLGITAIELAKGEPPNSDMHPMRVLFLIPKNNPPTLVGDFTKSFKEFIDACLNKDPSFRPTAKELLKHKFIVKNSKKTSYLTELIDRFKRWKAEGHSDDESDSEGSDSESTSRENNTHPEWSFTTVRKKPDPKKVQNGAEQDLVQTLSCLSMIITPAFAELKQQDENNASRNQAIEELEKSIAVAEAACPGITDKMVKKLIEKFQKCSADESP

ACVR1 (human) = ACVR1 (human) (UniProt Q04771); conditions: compound 0.5 µM; ATP 10 µM
MAPK8 (human) = MAPK8 (human) (UniProt P45983); conditions: compound 0.5 µM; ATP 10 µM
EPHA4 (human) = EPHA4 (human) (UniProt P54764); conditions: compound 0.5 µM; ATP 10 µM
DDR2 (human) = DDR2 (human) (UniProt Q16832); conditions: compound 0.5 µM; ATP 10 µM
MAP4K2 (human) = MAP4K2 (human) (UniProt Q12851); conditions: compound 0.5 µM; ATP 10 µM
MAPK12 (human) = MAPK12 (human) (UniProt P53778); conditions: compound 0.5 µM; ATP 10 µM
SRC (human) = SRC (human) (UniProt P12931); conditions: compound 0.5 µM; ATP 10 µM
LRRK2 (human) = LRRK2 (human) (UniProt Q5S007); conditions: compound 0.5 µM; ATP 10 µM
SYK (human) = SYK (human) (UniProt P43405); conditions: compound 0.5 µM; ATP 10 µM
FLT1 (human) = FLT1 (human) (UniProt P17948); conditions: compound 0.5 µM; ATP 10 µM
TTK (human) = TTK (human) (UniProt P33981); conditions: compound 0.5 µM; ATP 10 µM
FER (human) = FER (human) (UniProt P16591); conditions: compound 0.5 µM; ATP 10 µM
FER (human), sequence (P16591 whole entry, looked up): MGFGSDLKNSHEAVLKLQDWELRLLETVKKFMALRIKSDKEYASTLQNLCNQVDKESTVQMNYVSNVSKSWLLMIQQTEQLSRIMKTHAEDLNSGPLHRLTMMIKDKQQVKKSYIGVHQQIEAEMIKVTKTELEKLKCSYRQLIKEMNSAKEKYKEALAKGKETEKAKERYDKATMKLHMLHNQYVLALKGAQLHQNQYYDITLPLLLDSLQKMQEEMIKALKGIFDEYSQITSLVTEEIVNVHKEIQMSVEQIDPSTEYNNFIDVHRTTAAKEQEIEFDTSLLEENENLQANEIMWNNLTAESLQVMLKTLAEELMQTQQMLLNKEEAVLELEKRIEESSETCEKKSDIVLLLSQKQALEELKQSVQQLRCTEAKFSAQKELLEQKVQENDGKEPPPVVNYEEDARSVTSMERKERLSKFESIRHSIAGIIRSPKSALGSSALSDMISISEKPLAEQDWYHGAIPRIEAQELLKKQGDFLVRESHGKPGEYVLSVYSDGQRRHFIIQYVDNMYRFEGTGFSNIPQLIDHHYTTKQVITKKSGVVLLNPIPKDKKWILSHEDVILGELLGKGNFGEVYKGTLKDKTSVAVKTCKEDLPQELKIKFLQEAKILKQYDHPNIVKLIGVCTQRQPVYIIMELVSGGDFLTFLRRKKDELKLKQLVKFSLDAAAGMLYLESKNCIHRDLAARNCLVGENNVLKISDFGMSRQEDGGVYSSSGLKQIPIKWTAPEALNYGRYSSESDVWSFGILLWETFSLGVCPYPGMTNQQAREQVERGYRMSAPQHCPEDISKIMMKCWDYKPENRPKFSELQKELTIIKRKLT

CDC42BPB (human) = CDC42BPB (human) (UniProt Q9Y5S2); conditions: compound 0.5 µM; ATP 10 µM
CSNK1E (human) = CSNK1E (human) (UniProt P49674); conditions: compound 0.5 µM; ATP 10 µM
CDK4 CCND1 (human) = CDK4 CCND1 (human) (UniProt P24385+P11802); conditions: compound 0.5 µM
FGFR1 (human) = FGFR1 (human) (UniProt P11362); conditions: compound 0.5 µM; ATP 10 µM
PDGFRB (human) = PDGFRB (human) (UniProt P09619); conditions: compound 0.5 µM; ATP 10 µM
PKN2 (human) = PKN2 (human) (UniProt Q16513); conditions: compound 0.5 µM; ATP 10 µM
PKN2 (human), sequence (Q16513 whole entry, looked up): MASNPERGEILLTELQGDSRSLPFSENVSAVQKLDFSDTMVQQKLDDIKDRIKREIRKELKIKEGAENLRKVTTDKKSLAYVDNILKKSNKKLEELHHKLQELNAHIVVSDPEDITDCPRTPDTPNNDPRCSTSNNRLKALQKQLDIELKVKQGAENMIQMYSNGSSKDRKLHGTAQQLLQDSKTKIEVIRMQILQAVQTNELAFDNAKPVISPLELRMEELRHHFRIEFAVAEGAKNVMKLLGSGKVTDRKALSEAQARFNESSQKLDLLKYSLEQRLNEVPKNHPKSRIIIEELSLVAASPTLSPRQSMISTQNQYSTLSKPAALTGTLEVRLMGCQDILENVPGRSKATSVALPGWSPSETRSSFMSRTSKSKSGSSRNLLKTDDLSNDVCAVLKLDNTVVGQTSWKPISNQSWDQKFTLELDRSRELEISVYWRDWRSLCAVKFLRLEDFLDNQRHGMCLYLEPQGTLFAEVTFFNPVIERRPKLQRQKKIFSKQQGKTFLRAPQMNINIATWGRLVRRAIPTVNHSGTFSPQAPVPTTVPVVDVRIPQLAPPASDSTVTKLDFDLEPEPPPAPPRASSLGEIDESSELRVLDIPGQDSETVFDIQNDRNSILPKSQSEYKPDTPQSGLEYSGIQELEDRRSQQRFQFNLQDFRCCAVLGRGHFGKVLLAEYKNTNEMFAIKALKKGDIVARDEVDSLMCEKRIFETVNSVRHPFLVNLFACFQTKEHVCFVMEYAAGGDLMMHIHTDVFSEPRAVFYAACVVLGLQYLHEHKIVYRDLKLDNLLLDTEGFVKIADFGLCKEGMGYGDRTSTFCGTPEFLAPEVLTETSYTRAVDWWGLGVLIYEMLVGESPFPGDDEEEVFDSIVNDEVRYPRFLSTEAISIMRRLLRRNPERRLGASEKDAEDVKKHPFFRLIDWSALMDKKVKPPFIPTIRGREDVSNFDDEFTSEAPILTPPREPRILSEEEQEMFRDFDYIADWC

AURKC (human) = AURKC (human) (UniProt Q9UQB9); conditions: compound 0.5 µM; ATP 10 µM
AURKC (human), sequence (Q9UQB9 whole entry, looked up): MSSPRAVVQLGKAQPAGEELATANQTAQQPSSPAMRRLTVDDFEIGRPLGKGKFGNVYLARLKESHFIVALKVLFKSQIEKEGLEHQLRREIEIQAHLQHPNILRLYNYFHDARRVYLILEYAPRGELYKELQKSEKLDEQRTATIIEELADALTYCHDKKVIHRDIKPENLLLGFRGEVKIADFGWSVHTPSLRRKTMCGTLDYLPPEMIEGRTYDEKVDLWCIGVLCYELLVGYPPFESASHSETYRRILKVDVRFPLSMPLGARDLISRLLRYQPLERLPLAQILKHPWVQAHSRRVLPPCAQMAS

NLK (human) = NLK (human) (UniProt Q9UBE8); conditions: compound 0.5 µM; ATP 10 µM
NLK (human), sequence (Q9UBE8 whole entry, looked up): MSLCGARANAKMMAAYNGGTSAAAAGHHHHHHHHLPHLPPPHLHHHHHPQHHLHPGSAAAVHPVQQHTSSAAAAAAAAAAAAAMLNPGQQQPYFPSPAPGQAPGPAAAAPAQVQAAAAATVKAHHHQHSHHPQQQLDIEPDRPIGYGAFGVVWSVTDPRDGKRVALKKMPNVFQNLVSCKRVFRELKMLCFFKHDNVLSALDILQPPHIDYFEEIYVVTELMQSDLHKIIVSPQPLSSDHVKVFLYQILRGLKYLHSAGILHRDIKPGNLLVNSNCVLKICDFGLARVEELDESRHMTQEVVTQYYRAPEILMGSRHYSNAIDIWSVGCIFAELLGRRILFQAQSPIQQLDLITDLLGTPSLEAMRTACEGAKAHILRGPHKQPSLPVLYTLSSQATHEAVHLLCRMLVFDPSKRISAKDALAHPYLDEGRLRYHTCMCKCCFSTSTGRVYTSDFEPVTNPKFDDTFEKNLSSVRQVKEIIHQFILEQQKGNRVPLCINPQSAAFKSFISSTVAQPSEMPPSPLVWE

MAP3K7 TAB1 (human) = MAP3K7 TAB1 (human) (UniProt O43318+Q15750); conditions: compound 0.5 µM; ATP 10 µM

PRKCZ (human), sequence (Q05513 whole entry, looked up): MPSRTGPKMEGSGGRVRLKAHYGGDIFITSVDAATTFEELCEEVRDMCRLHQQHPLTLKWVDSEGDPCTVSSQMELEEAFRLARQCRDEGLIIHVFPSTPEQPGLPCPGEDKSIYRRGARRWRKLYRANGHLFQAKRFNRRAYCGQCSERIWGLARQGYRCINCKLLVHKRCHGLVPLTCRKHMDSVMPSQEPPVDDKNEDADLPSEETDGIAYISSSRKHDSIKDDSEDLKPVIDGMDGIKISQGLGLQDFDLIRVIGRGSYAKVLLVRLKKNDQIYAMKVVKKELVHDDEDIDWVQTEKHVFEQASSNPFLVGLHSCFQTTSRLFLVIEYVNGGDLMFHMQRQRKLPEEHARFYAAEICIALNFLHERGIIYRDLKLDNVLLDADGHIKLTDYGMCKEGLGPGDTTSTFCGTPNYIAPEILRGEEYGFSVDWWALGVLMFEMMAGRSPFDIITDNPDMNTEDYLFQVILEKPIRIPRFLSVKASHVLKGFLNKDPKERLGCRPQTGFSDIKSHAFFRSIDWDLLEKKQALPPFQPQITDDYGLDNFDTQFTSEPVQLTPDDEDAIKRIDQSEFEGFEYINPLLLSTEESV

## Cc1cc(Nc2nc(-c3ccccc3)nc3ccccc23)n[nH]1
PRKCB2 (human)
  residual activity: 87.3%
MAPK13 (human)
  residual activity: 106%
PRKCZ (human)
  residual activity: 97.1%
PIM2 (human)
  residual activity: 92.7%
CLK3 (human)
  residual activity: 33.8%
WNK3 (human)
  residual activity: 74.9%
ERBB4 (human)
  residual activity: 92%
CDK4 CCND3 (human); ATP 10 µM
  residual activity: 94.4%
MAPKAPK3 (human)
  residual activity: 81%
GRK7 (human)
  residual activity: 79.2%
WNK2 (human)
  residual activity: 82.6%
TSSK2 (human)
  residual activity: 105%
RPS6KA5 KD2 (human)
  residual activity: 70.5%
TYRO3 (human)
  residual activity: 94.2%
LIMK1 (human)
  residual activity: 59.6%
DAPK2 (human)
  residual activity: 89.5%
RPS6KA4 KD2 (human)
  residual activity: 108%
CDK6 CCND1 (human); ATP 10 µM
  residual activity: 85.5%
AKT2 (human)
  residual activity: 127%
PLK3 (human)
  residual activity: 88.3%
MST4 (human)
  residual activity: 91.2%
ACVR1 (human)
  residual activity: 149%
MAPK8 (human)
  residual activity: 92%
EPHA4 (human)
  residual activity: 70.7%
DDR2 (human)
  residual activity: 93.2%
MAP4K2 (human)
  residual activity: 45.3%
MAPK12 (human)
  residual activity: 86.8%
SRC (human)
  residual activity: 24.4%
LRRK2 (human)
  residual activity: 88.3%
SYK (human)
  residual activity: 61.9%
FLT1 (human)
  residual activity: 78.7%
TTK (human)
  residual activity: 102%
FER (human)
  residual activity: 31.6%
CDC42BPB (human)
  residual activity: 87.1%
CSNK1E (human)
  residual activity: 97.4%
CDK4 CCND1 (human); ATP 10 µM
  residual activity: 100%
FGFR1 (human)
  residual activity: 48.8%
PDGFRB (human)
  residual activity: 55.4%
PKN2 (human)
  residual activity: 87.2%
AURKC (human)
  residual activity: 51.8%
NLK (human)
  residual activity: 94.7%
MAP3K7 TAB1 (human)
  residual activity: 78.3%

## O=c1[nH]c2ccccc2n1C1CCN(Cc2ccc(-c3nc4cc5[nH]cnc5cc4nc3-c3ccccc3)cc2)CC1
PRKCB2 (human)
  residual activity: 105%
MAPK13 (human)
  residual activity: 102%
PRKCZ (human)
  residual activity: 102%
PIM2 (human)
  residual activity: 111%
CLK3 (human)
  residual activity: 111%
WNK3 (human)
  residual activity: 106%
ERBB4 (human)
  residual activity: 105%
CDK4 CCND3 (human)
  residual activity: 99.7%
MAPKAPK3 (human)
  residual activity: 104%
GRK7 (human)
  residual activity: 98.5%
WNK2 (human)
  residual activity: 115%
TSSK2 (human)
  residual activity: 96.2%
RPS6KA5 KD2 (human)
  residual activity: 103%
TYRO3 (human)
  residual activity: 103%
LIMK1 (human)
  residual activity: 110%
DAPK2 (human)
  residual activity: 99%
RPS6KA4 KD2 (human)
  residual activity: 98.8%
CDK6 CCND1 (human)
  residual activity: 105%
AKT2 (human)
  residual activity: 96.8%
PLK3 (human)
  residual activity: 99.1%
MST4 (human)
  residual activity: 102%
ACVR1 (human)
  residual activity: 102%
MAPK8 (human)
  residual activity: 89.6%
EPHA4 (human)
  residual activity: 97.1%
DDR2 (human)
  residual activity: 99.2%
MAP4K2 (human)
  residual activity: 105%
MAPK12 (human)
  residual activity: 93.1%
SRC (human)
  residual activity: 103%
LRRK2 (human)
  residual activity: 103%
SYK (human)
  residual activity: 97.9%
FLT1 (human)
  residual activity: 92.2%
TTK (human)
  residual activity: 104%
FER (human)
  residual activity: 99.6%
CDC42BPB (human)
  residual activity: 101%
CSNK1E (human)
  residual activity: 107%
CDK4 CCND1 (human)
  residual activity: 108%
FGFR1 (human)
  residual activity: 102%
PDGFRB (human)
  residual activity: 102%
PKN2 (human)
  residual activity: 73.2%
AURKC (human)
  residual activity: 96%
NLK (human)
  residual activity: 104%
MAP3K7 TAB1 (human)
  residual activity: 84.1%

## CCOc1cc2ncnc(Nc3cccc(Br)c3)c2cc1OCC
PRKCB2 (human)
  residual activity: 98.6%
MAPK13 (human)
  residual activity: 96.7%
PRKCZ (human)
  residual activity: 97.8%
PIM2 (human)
  residual activity: 98.9%
CLK3 (human)
  residual activity: 85.3%
WNK3 (human)
  residual activity: 96.5%
ERBB4 (human)
  residual activity: 34.3%
CDK4 CCND3 (human); ATP 10 µM
  residual activity: 97.8%
MAPKAPK3 (human)
  residual activity: 87.4%
GRK7 (human)
  residual activity: 102%
WNK2 (human)
  residual activity: 95.8%
TSSK2 (human)
  residual activity: 104%
RPS6KA5 KD2 (human)
  residual activity: 95.8%
TYRO3 (human)
  residual activity: 92.2%
LIMK1 (human)
  residual activity: 101%
DAPK2 (human)
  residual activity: 103%
RPS6KA4 KD2 (human)
  residual activity: 95.4%
CDK6 CCND1 (human); ATP 10 µM
  residual activity: 102%
AKT2 (human)
  residual activity: 87.6%
PLK3 (human)
  residual activity: 97.1%
MST4 (human)
  residual activity: 94.9%
ACVR1 (human)
  residual activity: 97.1%
MAPK8 (human)
  residual activity: 90.7%
EPHA4 (human)
  residual activity: 75.1%
DDR2 (human)
  residual activity: 100%
MAP4K2 (human)
  residual activity: 91.5%
MAPK12 (human)
  residual activity: 105%
SRC (human)
  residual activity: 74.8%
LRRK2 (human)
  residual activity: 78.7%
SYK (human)
  residual activity: 95.6%
FLT1 (human)
  residual activity: 85%
TTK (human)
  residual activity: 91.2%
FER (human)
  residual activity: 90.7%
CDC42BPB (human)
  residual activity: 107%
CSNK1E (human)
  residual activity: 93.8%
CDK4 CCND1 (human); ATP 10 µM
  residual activity: 94.2%
FGFR1 (human)
  residual activity: 90.9%
PDGFRB (human)
  residual activity: 94.8%
PKN2 (human)
  residual activity: 90%
AURKC (human)
  residual activity: 83.7%
NLK (human)
  residual activity: 95.9%
MAP3K7 TAB1 (human)
  residual activity: 102%
